Source: patent EP0115640A2, “Substituted 4-imidazolyl-pyrazoles, process for their preparation and medicaments containing them” (BAYER AG, priority 1983, dated 1984)

Tested on: Thrombozytenaggregation
Assay: Inhibition of collagen-induced platelet aggregation in platelet-rich plasma (turbidimetric method, aggregometer)
Format: cell-based, Human
Conditions: PRP; for Thrombozytenaggregation gehemmt: result in words, collagen-induced; for minimal effective concentration: Homo sapiens, Platelet, 37°C, aggregation triggered with Kollagensuspension, minimal concentration that inhibits aggregation, read-out: Hemmung der Thrombozytenaggregation minimal effektive Konzentration
Source text: Thrombozytenaggregationshemmung
Für die Bestimmung der thrombozytenaggregationshemmenden Wirkung wurde Blut von gesunden Spendern, die mindestens 14 Tage lang kein Medikament eingenommen hatten, verwendet. Das Blut wurde in 3,8 %-iger Natriumcitratlösung aufgenommen. Plättchenreiches Plasma (PRP) wurde durch 20 Minuten Zentrifugation bei 150 g und Raumtemperatur gewonnen (Jürgens/Beller: Klinische Methoden der Blutgerinnungsanalyse; Thieme-Verlag Stuttgart 1959). Die Plättchenaggregation wurde nach der turbidometrischen Methode (Born, G.V.R.: J. Physiol. 162, 67 (1962)) im Aggregometer bei 37°C bestimmt. Hierzu wurde PRP mit Prüfsubstanz bei 37°C inkubiert und anschließend die Aggregation durch Zugabe einer Kollagensuspension ausgelöst. Bestimmt wurde die minimale Konzentration einer Prüfsubstanz, die die Thrombozytenaggregation hemmte.
In diesem Test wird die Thrombozytenaggregation insbesondere durch die Verbindungen folgender Herstellungsbeispiele gehemmt: 1, 2, 9 und 15.

| Compound | Thrombozytenaggregation gehemmt | minimal effective concentration |
| --- | --- | --- |
| CC(C)(C)c1n[nH]cc1-n1ccnc1 [Beispiel 1] | gehemmt | – |
| Cn1cc(-n2ccnc2)c(C(C)(C)C)n1 [Beispiel 2, 3-tert.-Butyl-1-methyl-4-(imidazol-1-yl)-pyrazol] | gehemmt | – |
| CC(C)(COc1ccc(Cl)cc1Cl)c1n[nH]cc1-n1ccnc1 [Beispiel 9] | gehemmt | – |
| Cn1cc(-n2ccnc2)c(C(C)(C)COc2ccc(Cl)cc2)n1 [Beispiel 15] | gehemmt | 30 µg/mL |
| c1c[nH]cn1 [Imidazol] | – | 30 µg/mL |
